This note sets out measurements from patent publication US20240116922A1, “IMIDAZO[1,2-A]PYRIDINE DERIVATIVES AS IRAK4 INHIBITORS AND THEIR USE IN THE TREATMENT OF DISEASE” (BIOGEN MA INC., priority 2020, published 2024).

Values after ≈ are worked out from the molar mass of the structure shown.

One data set addresses IRAK4 (Homo sapiens (Human), UniProt Q9NWZ3). Briefly: IRAK4 MSD biochemical assay (2-hour 1 mM ATP). The conditions noted are these: 0.1 nM IRAK4, 1 mM ATP, 2 hour at room temperature.
The target of another data set is MDR1 (Homo sapiens (Human), UniProt P08183). Briefly: in vitro. The conditions noted are these: MDCK-MDR1.
Sequence of MDR1 (P08183 whole entry): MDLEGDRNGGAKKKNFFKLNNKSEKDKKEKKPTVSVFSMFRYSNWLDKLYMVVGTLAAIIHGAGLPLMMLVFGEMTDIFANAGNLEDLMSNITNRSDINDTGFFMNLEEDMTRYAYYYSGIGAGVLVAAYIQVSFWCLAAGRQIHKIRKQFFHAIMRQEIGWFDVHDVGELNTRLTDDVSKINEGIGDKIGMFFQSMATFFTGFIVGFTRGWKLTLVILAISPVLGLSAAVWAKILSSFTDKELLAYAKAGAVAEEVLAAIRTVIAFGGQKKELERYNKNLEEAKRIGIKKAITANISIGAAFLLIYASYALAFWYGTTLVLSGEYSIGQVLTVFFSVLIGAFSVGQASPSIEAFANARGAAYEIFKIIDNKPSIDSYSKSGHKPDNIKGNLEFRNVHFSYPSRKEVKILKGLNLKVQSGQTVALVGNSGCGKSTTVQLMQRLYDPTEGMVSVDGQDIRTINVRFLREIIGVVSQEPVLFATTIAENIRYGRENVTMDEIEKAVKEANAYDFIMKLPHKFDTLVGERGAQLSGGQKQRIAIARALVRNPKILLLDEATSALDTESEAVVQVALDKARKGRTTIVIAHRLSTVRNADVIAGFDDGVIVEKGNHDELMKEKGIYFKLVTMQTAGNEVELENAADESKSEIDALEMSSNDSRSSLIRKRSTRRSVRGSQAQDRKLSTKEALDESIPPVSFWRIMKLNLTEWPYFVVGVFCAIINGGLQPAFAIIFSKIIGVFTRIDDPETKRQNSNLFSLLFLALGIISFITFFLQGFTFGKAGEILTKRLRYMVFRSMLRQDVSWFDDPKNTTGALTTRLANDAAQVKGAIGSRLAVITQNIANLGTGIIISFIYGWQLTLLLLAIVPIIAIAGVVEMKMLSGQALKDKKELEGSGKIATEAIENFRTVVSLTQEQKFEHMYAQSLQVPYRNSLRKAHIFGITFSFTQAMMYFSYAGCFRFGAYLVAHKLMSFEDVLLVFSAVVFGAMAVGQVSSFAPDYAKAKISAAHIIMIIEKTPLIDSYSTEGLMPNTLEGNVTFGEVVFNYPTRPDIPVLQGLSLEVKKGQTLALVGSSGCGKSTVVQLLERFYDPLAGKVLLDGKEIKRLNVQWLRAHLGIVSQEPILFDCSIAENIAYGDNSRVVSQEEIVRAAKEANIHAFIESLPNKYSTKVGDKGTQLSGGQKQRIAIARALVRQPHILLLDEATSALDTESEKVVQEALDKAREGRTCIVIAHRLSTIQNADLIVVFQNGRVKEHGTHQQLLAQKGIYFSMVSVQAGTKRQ
The nature of data set [1]: Kinetic solubility assay (CLND), pH 6.8. The conditions noted are these: aqueous buffer, kinetic from dmso stock; potassium phosphate buffer pH 6.8, 2% DMSO, 24 hours at ambient temperature. Format: physicochemical.

Sequence of IRAK4 (Q9NWZ3 whole entry): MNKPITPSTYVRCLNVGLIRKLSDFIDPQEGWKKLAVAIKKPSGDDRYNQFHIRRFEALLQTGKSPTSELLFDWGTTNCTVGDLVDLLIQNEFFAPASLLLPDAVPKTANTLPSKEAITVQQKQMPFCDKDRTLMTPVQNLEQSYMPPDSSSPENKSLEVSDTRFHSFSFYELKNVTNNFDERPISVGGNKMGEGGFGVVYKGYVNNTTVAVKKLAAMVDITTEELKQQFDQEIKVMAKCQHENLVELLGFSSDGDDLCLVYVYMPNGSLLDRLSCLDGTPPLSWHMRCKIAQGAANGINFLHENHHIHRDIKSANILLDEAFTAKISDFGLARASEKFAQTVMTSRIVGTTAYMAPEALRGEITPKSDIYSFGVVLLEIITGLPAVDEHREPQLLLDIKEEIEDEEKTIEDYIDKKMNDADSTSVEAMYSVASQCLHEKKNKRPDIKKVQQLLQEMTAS

A word on the IC50: it is the midpoint of a concentration-inhibition curve. Low readings indicate greater potency in that assay, high ones weaker potency in that assay. As a reminder, the efflux ratio is the permeability from basolateral to apical divided by that in the opposite direction, in the common usage. At IRAK4, `CC[C@@H](C)Oc1nc2nc(C34COC(C)(C3)C4)cn2cc1C(=O)Nc1cccn([C@@H]2C[C@@H]2F)c1=O` (mixture of isomers) [Example 41, 7-((R)-sec-butoxy)-N-(1-(cis-2-fluorocyclopropyl)-2-oxo-1,2-dihydropyridin-3-yl)-2-(1-methyl-2-oxabicyclo[2.1.1]hexan-4-yl)imidazo[1,2-a]pyrimidine-6-carboxamide] had an IC50 of 0.6 nM. The efflux ratio at 120 min, 1 μM at MDR1 turned out to be 9.1. Usually solubility (kinetic) stands for solubility judged after dilution from a stock solution rather than from solid. For the compound `CC(C)Oc1cc2nc([C@@]34CC[C@@](C)(C3)OC4)cn2cc1C(=O)Nc1cccn(C2CC2F)c1=O` (mixture of isomers) [Example 99, N-(1-(2-fluorocyclopropyl)-2-oxo-1,2-dihydropyridin-3-yl)-7-isopropoxy-2-((1S,4R)-1-methyl-2-oxabicyclo[2.2.1]heptan-4-yl)imidazo[1,2-a]pyridine-6-carboxamide], the IC50 on IRAK4 worked out at 0.4 nM. The kinetic solubility at 24 h in data set [1] was 62 µg/mL. In the case of `CC(C)Oc1c(C(=O)Nc2cccn([C@@H]3C[C@@H]3F)c2=O)cn2cc(C34COC(C)(C3)C4)nc2c1F` (racemic) [Example 91, (rac)-Cis-8-fluoro-N-(1-(2-fluorocyclopropyl)-2-oxo-1,2-dihydropyridin-3-yl)-7-isopropoxy-2-(1-methyl-2-oxabicyclo[2.1.1]hexan-4-yl)imidazo[1,2-a]pyridine-6-carboxamide], inhibition against IRAK4 was half-maximal at 0.8 nM (IC50). Besides, the efflux ratio at 120 min, 1 μM at MDR1 stood at 5.1.

On to `CC[C@@H](C)Oc1nc2nc(C34COC(C)(C3)C4)cn2cc1C(=O)Nc1cccn([C@@H]2C[C@@H]2F)c1=O` (single isomer, unassigned) [Example 57], for which the IC50 against IRAK4 was 23 nM. Moreover, the efflux ratio at 120 min, 1 μM on MDR1 was 7.9.

The compound `CC[C@H](C)Oc1nc2nc(C34COC(C)(C3)C4)cn2cc1C(=O)Nc1cccn([C@@H]2C[C@@H]2F)c1=O` (single isomer, unassigned) [Example 59] returned an IC50 against IRAK4 of 9 nM. Further, the efflux ratio at 120 min, 1 μM on MDR1 came out at 9.4. On the same counts, the results for `CC(C)Oc1nc2nc(C34COC(C)(C3)C4)cn2cc1C(=O)Nc1cccn([C@@H]2CC2(C)C)c1=O` (single isomer, unassigned) [Example 78] are 11 nM and 2.1. `CC(C)Oc1nc2nc([C@H]3CCCOC3)cn2cc1C(=O)Nc1cccn(C2CC2)c1=O` (single isomer, unassigned) [Example 107] came in with an IC50 on IRAK4 of 0.3 nM. Besides, the efflux ratio at 120 min, 1 μM on MDR1 came out at 3. On the same counts, the results for `CC(C)Oc1nc2nc(C[C@H]3CCOC3)cn2cc1C(=O)Nc1cccn(C2CC2)c1=O` (single isomer, unassigned) [Example 110] are 0.5 nM and 7. Compound `CC(C)Oc1c(C(=O)Nc2cccn([C@H]3C[C@H]3F)c2=O)cn2cc([C@@]34CC[C@@](C)(C3)OC4)nc2c1F` (single isomer, unassigned) [Example 125] gave a half-maximal inhibitory concentration (IC50) against IRAK4 of 0.5 nM. This compound also registered a kinetic solubility at 24 h in data set [1] of 39.9 µg/mL (≈ 80 µM).

On to `CC(C)Oc1c(C(=O)Nc2cccn([C@@H]3C[C@@H]3F)c2=O)cn2cc([C@]34CC[C@](C)(C3)OC4)nc2c1F` (single isomer, unassigned) [Example 126], for which the midpoint of inhibition against IRAK4, the IC50, lay at 66.5 nM. The efflux ratio at 120 min, 1 μM on MDR1 came out at 4.4. The corresponding values for `CO[C@@H]1C[C@H]1n1cccc(NC(=O)c2cn3cc(C45COC(C)(C4)C5)nc3nc2OC(C)C)c1=O` (single isomer, unassigned) [Example 137] are 1.4 nM and 4.8. Compound `CO[C@H]1C[C@@H]1n1cccc(NC(=O)c2cn3cc(C45COC(C)(C4)C5)nc3nc2OC(C)C)c1=O` (single isomer, unassigned) [Example 138] came in with an IC50 at IRAK4 of 6.3 nM. Further, the efflux ratio at 120 min, 1 μM on MDR1 is 3.8. In turn, `CC(C)Oc1nc2nc([C@]34CC[C@](C)(C3)OC4)cn2cc1C(=O)Nc1cccn([C@@H]2C[C@H]2C)c1=O` (single isomer, unassigned) [Example 141] yielded an IC50 at IRAK4 of 0.4 nM. This compound gave a solubility (kinetic) at 24 h in data set [1] of 43.2 µg/mL (≈ 90.5 µM). The corresponding values for `CC(C)Oc1nc2nc([C@]34CC[C@](C)(C3)OC4)cn2cc1C(=O)Nc1cccn([C@H]2C[C@@H]2C)c1=O` (single isomer, unassigned) [Example 142] are 1.2 nM and 37 µg/mL (≈ 77.5 µM). `CC(C)Oc1nc2nc([C@@]34CC[C@@](C)(C3)OC4)cn2cc1C(=O)Nc1cccn([C@@H]2C[C@H]2C)c1=O` (single isomer, unassigned) [Example 148] returned an IC50 at IRAK4 of 1.2 nM. The efflux ratio at 120 min, 1 μM on MDR1 was determined as 2.6. On the same counts, the results for `CC(C)Oc1nc2nc([C@@]34CC[C@@](C)(C3)OC4)cn2cc1C(=O)Nc1cccn([C@H]2CC23CC3)c1=O` (single isomer, unassigned) [Example 150] are 2.7 nM and 1. The corresponding values for `CC(C)Oc1nc2nc([C@@]34CC[C@@](C)(C3)OC4)cn2cc1C(=O)Nc1cccn([C@@H]2CC23CC3)c1=O` (single isomer, unassigned) [Example 151] are 1.1 nM and 1.2.

Take `CC(C)Oc1nc2nc([C@]34CC[C@](C)(C3)OC4)cn2cc1C(=O)Nc1cccn([C@@H]2CC23CC3)c1=O` (single isomer, unassigned) [Example 153]: the IC50 on IRAK4 amounted to 1.7 nM. Moreover, the efflux ratio at 120 min, 1 μM on MDR1 was 1.5. On the same counts, the results for `O=C(Nc1cccn([C@@H]2C[C@@H]2F)c1=O)c1cn2cc(C34COC(C3)C4)nc2nc1OC1CCC1` (single isomer, unassigned) [Example 166] are 41 nM and 2.6.

As for `CC(C)Oc1cc2nc([C@@]34CC[C@@](C)(C3)OC4)cn2cc1C(=O)Nc1cccn([C@H]2C[C@H]2F)c1=O` (single isomer, unassigned) [Example 169], at IRAK4, the IC50 was 0.3 nM. The efflux ratio at 120 min, 1 μM at MDR1 amounted to 10.4. For `CC12CC(c3cn4cc(C(=O)Nc5cccn([C@@H]6C[C@@H]6F)c5=O)c(OC5CCC5)cc4n3)(CO1)C2` (single isomer, unassigned) [Example 172], the IC50 at IRAK4 came to 27 nM.

For the compound `CC12CC(c3cn4cc(C(=O)Nc5cccn([C@@H]6C[C@@H]6F)c5=O)c(OC5CC5)cc4n3)(CO1)C2` (single isomer, unassigned) [Example 174], inhibition against IRAK4 was half-maximal at 37.5 nM (IC50). `CC(C)Oc1cc2nc(C34CCC(C3)OC4)cn2cc1C(=O)Nc1cccn(C2CC2)c1=O` (stereo not drawn) [Example 38, 2-(2-oxabicyclo[2.2.1]heptan-4-yl)-N-(1-cyclopropyl-2-oxo-1,2-dihydropyridin-3-yl)-7-isopropoxyimidazo[1,2-a]pyridine-6-carboxamide]: the IC50 against IRAK4 came to 0.3 nM. Also, at MDR1, the efflux ratio at 120 min, 1 μM came to 7. On IRAK4, `CCOc1nc2nc(C34COC(C)(C3)C4)cn2cc1C(=O)Nc1cccn(C2CC2)c1=O` [Example 43, N-(1-cyclopropyl-2-oxo-1,2-dihydropyridin-3-yl)-7-ethoxy-2-(1-methyl-2-oxabicyclo[2.1.1]hexan-4-yl)imidazo[1,2-a]pyrimidine-6-carboxamide] displayed an IC50 of 1.3 nM. The efflux ratio at 120 min, 1 μM on MDR1 was 10.3.

With `CC[C@@H](C)Oc1nc2nc([C@]34CC[C@](C)(C3)OC4)cn2cc1C(=O)Nc1cccn(C2CC2)c1=O` [Example 51, 7-((R)-sec-butoxy)-N-(1-cyclopropyl-2-oxo-1,2-dihydropyridin-3-yl)-2-((1R,4S)-1-methyl-2-oxabicyclo[2.2.1]heptan-4-yl)imidazo[1,2-a]pyrimidine-6-carboxamide], the IC50 against IRAK4 was 1.8 nM. Moreover, the efflux ratio at 120 min, 1 μM on MDR1 was found to be 3.1. The corresponding values for `CC[C@@H](C)Oc1nc2nc(C34CCC(CF)(C3)OC4)cn2cc1C(=O)Nc1cccn(C2CC2)c1=O` (stereo partly drawn) [Example 55, 7-((R)-sec-butoxy)-N-(1-cyclopropyl-2-oxo-1,2-dihydropyridin-3-yl)-2-(1-(fluoromethyl)-2-oxabicyclo[2.2.1]heptan-4-yl)imidazo[1,2-a]pyrimidine-6-carboxamide] are 1.1 nM and 4.7. The corresponding values for `CC(C)Oc1c(C(=O)Nc2ccnn(C3CC3)c2=O)cn2cc(C34COC(C)(C3)C4)nc2c1F` [Example 73, N-(2-cyclopropyl-3-oxo-2,3-dihydropyridazin-4-yl)-8-fluoro-7-isopropoxy-2-(1-methyl-2-oxabicyclo[2.1.1]hexan-4-yl)imidazo[1,2-a]pyridine-6-carboxamide] are 14 nM and 1. On the same counts, the results for `CC(C)Oc1cc2nc(C34COC(C)(C3)C4)cn2cc1C(=O)Nc1cccn([C@@H]2C[C@@H]2C)c1=O` [Example 133, 7-isopropoxy-2-(1-methyl-2-oxabicyclo[2.1.1]hexan-4-yl)-N-(1-((1R,2S)-2-methylcyclopropyl)-2-oxo-1,2-dihydropyridin-3-yl)imidazo[1,2-a]pyridine-6-carboxamide] are 21.4 nM and 4.3. Consider `CC(C)Oc1cc2nc(C34COC(C)(C3)C4)cn2cc1C(=O)Nc1cccn([C@H]2C[C@@H]2C)c1=O` [Example 140, 7-isopropoxy-2-(1-methyl-2-oxabicyclo[2.1.1]hexan-4-yl)-N-(1-((1S,2S)-2-methylcyclopropyl)-2-oxo-1,2-dihydropyridin-3-yl)imidazo[1,2-a]pyridine-6-carboxamide], for which, on IRAK4, the IC50 was 1.1 nM. In other words, the single-digit nanomolar range. In the case of `CC(C)Oc1c(C(=O)Nc2cccn([C@@H]3C[C@H]3C)c2=O)cn2cc(C34COC(C)(C3)C4)nc2c1F` [Example 147, 8-fluoro-7-isopropoxy-2-(1-methyl-2-oxabicyclo[2.1.1]hexan-4-yl)-N-(1-((1R,2R)-2-methylcyclopropyl)-2-oxo-1,2-dihydropyridin-3-yl)imidazo[1,2-a]pyridine-6-carboxamide], at IRAK4, the IC50 stood at 15.9 nM. Further, on MDR1, the efflux ratio at 120 min, 1 μM was determined as 1.5.
